Test results as given in paper PMC10788915, “Fragment Merging, Growing, and Linking Identify New Trypanothione Reductase Inhibitors for Leishmaniasis” (Journal of Medicinal Chemistry, 2024).

Legend:
[1] = test system: L. infantum axenic amastigotes; settings: stated for the control (Euroclone) in the axenic amastigote method; read-out: IC50 of the control drug; cited from earlier work
[2] = test system: L. infantum axenic amastigotes; experiment: In vitro inhibition of axenic amastigote growth (MTT); format: cell-based, Leishmania infantum; settings: Leishmania infantum, 72 h, read-out: axenic amastigote EC50 ± SE (95% CI)
Experimental: Axenic amastigote growth inhibition was evaluated using L. infantum strain (MHOM/TN/80/IPT1, WHO international reference strain). Axenic amastigote cultures were obtained as described previously with modifications.[45] Promastigotes were grown in Schneider’s Drosophila medium (SIGMA) containing 10% heat-inactivated fetal calf serum (FCS)(GIBCO-BRL) and 2% gentamicin (50 mg/L)(Sigma) in 25 cm^2 flasks at 22 °C. After 4–5 days, the parasites were adjusted to 1 × 10^6 parasites/mL in axenic medium MAA/20 consisting of modified medium 199 (Gibco BRL) with Hanks’ salts supplemented with 0.5% tryptic soy broth (Sigma), 0.01 mM bathocuproine disulfonic acid, 3 mM L-cysteine, 15 mM D-glucose, 5 mM L-glutamine, 4 mM NaHCO3, 0.023 mM bovine hemin, and 25 mM HEPES to a final pH of 6.5 and supplemented with 20% pretested FCS, and axenic amastigotes were obtained by shifting the incubation conditions: 198 μL of suspension was seeded in triplicate in 96-well flat bottom microplates and incubated at 37 °C, 5% CO2 for 48 h in order to allow the axenization. The amastigote cells were visualized under the light microscope to confirm transformation. Then, 2 μL of the selected compounds with varying concentrations were added: 100, 50, 25, 12.5, 6.25, 3.12, 1.56, 0.8, 0.4, 0.2, 0.1, 0.05 μM. […] Each experiment was conducted in triplicate for each drug concentration, and three independent experiments were performed. To estimate the 50% inhibitory concentration (IC50), the (3-[4.5-dimethylthiazol-2-yl]-2.5-diphenyltetrazolium bromide) (MTT) micromethod was used throughout the experiments with modification. After 72 h of incubation, 30 μL of MTT was added to each well, and the plates were further incubated for 3 h. The absorbance at 550 nm was measured with a 96-well scanner. Antileishmanial activity was expressed as the percentage of inhibition in the number of live parasites compared to that in the control (nontreated parasites). % inhibition was calculated as follows: % growth inhibition = [(absorb cell with drug × 100)/absorb cell control] – 100. Results were analyzed by GraphPad Prism 5.0, dose–response curves were obtained and IC50 deduced (GraphPad Software Inc., San Diego, USA).

[3] = test system: L. infantum intramacrophage amastigotes; experiment: Ex vivo inhibition of intramacrophage amastigote growth; format: cell-based, Leishmania infantum; settings: Leishmania infantum, Macrophage, in Mus musculus, 72 h, murine macrophages infected with L. infantum amastigotes, 72 h, read-out: intramacrophage amastigote EC50 ± SE (95% CI)
Experimental: Balb/c murine macrophages were used to perform ex vivo assay since the parasites infect them more effectively. Macrophages (5 × 10^5/well) were placed on glass coverslips within a 24-well culture plate and incubated with complete RPMI in a 5% CO2 incubator at 37 °C for 4 h to achieve cell adhesion. After this time, L. infantum amastigotes from spleens of previously infected hamsters were added onto the macrophages adhering to the coverslips at the ratio of 10:1 (parasites/macrophages). After 24 h of infection, the noninternalized amastigotes were removed by washes with RPMI. The infected macrophages were incubated with complete RPMI medium (control) or medium containing different concentrations of compounds in a 5% CO2 incubator at 37 °C for 72 h. Then, the coverslips were fixed with methanol, stained with Giemsa 10%, and analyzed by optical microscopy. The percentage of the infected macrophages and the number of amastigotes per infected macrophage were determined by random counting of 100 cells in each coverslip. Infection was judged to be adequate if more than 70% of the macrophages in the untreated control were infected. Activity for each compound was expressed as percentage of parasite burden reduction = infectivity index of treated cells/infectivity index of untreated cells. The infectivity index was calculated as follows: number of infected macrophages × mean number of amastigotes per macrophage / total number of macrophages. Nonlinear regression analysis (Graph-Pad Software Inc., San Diego, USA) was used for curve fitting and calculation of 50% inhibitory concentrations (IC50). The experiments were performed in triplicate, and two independent experiments were conducted.

[4] = Cytotoxicity assay on primary murine macrophages (MTT); format: cell-based, Balb/c mice; settings: Balb/c, mouse, primary peritoneal exudate macrophages, read-out: primary murine macrophage CC50 ± SE (95% CI)
Experimental: (§1) To assess the cytotoxicity of compounds on mammalian macrophages, we tested all the compounds against both human leukemia monocyte cell line (THP-1 cells, ATCC) differentiated into macrophages by treatment with 40 ng/mL of phorbol myristate acetate (PMA; Sigma) for 48 h and peritoneal exudate macrophages harvested from Balb/c mice. […] Cell viability was evaluated using the MTT assay, and the concentration of the compound that produced a 50% reduction of cell viability in treated culture cells with respect to untreated ones (CC50) was determined by GraphPad Prism 5.0 (GraphPad Software Inc., San Diego, USA). […] The selectivity index for each compound was calculated as the ratio of cytotoxicity (CC50) in macrophages cells to activity (IC50) against Leishmania axenic amastigotes. The experiments were performed in triplicate, and two independent experiments were conducted.

[5] = test system: human THP-1-derived macrophages; experiment: Cytotoxicity assay on human THP-1-derived macrophages (MTT); format: cell-based
Experimental: as §1

[6] = as above; format: cell-based; settings: human, THP-1 cells differentiated into macrophages with PMA, 72 h, MTT; read-out: human THP-1-derived macrophage CC50 ± SE (95% CI)
Experimental: as §1

## C[C@@H]1[C@H](O)[C@@H](C)/C=C/C=C/C=C/C=C/C=C/C=C/C=C/[C@H](O[C@@H]2O[C@H](C)[C@@H](O)[C@H](N)[C@@H]2O)C[C@@H]2O[C@](O)(C[C@@H](O)C[C@@H](O)[C@H](O)CC[C@@H](O)C[C@@H](O)CC(=O)O[C@H]1C)C[C@H](O)[C@H]2C(=O)O [AmpB, Amphotericin B, reference compound]
[1]
  IC50: 500 nM
[2]
  EC50: 800 ± 400 nM
[3]
  EC50: 540 ± 300 nM
[4]
  CC50 at 72 h: 16700 ± 2050 nM
[5]
  SI = human THP-1-derived macrophage CC50/axenic amastigote EC50: 26.4
[6]
  CC50 at 72 h: 21100 ± 3000 nM
